Key:
[1] = test system: SLC2A3; assay: Compound uptake in HEK293 expressing solute carrier family 2 member 3; assay type: cell-based
Experimental: HEK293 cells are cultured and seeded at ~60% confluency in 24-well plates and are transiently transfected with 250 ng of a candidate transporter and 1 μL transfection reagent (JetPRIME). After 2 days, cells are washed and novel fluorescent probes at different concentrations are added to the transport medium and incubated at 37° C., for at least 30 minutes. To terminate the transport, cells are washed with PBS and fixed with 4% paraformaldehyde. The colocalization of probe uptake and cells expressing the transporters is investigated by immunostaining the transporter which has a fused FLAG tag, using anti-FLAG 488. Before confocal imaging, nuclei are labeled with Hoechst 33342 and cells are mounted and imaged on a Leica SP8 confocal microscope.
For in vitro experiments, HEK293 cells were cultured and seeded in 24-well plates, reaching approximately 60% confluency. For transient transfection, 250 ng of a candidate transporter plasmid and 1 μL of transfection reagent (JetPRIME) were added to the cells. After a 2-day incubation period, the cells were washed, and novel fluorescent probes were introduced into the transport medium at various concentrations. The cells were then incubated at 37° C., for a minimum of 30 minutes to allow for uptake. To stop the transport process, the cells were washed with PBS and fixed using 4% paraformaldehyde. […]

[2] = test system: cancer cells in freshly excised breast surgical tissue; assay: Injection into freshly excised cancerous breast tissue
From the text: Injection of compound 1 into freshly excised cancerous breast tissue leads to rapid entry into cancer cells (red). Blue represents nuclear labeling with Hoechst dye.

[3] = Assessment of in vivo compound toxicity (fur regrowth, body weight); parameters: species or system mouse; conditions: intradermal injection (fur regrowth) and daily intraperitoneal injection for 5 days (body weight)
Experimental: To evaluate systemic toxicity, mouse weight was monitored daily, focusing on P20 mice in their active growth stage. For local toxicity assessment, the mouse fur was shaved to stimulate follicular stem cell division and subsequent hair regrowth. Compounds were injected intradermally on the right lower back quadrant and the left quadrant was used as a control. Hair regrowth was monitored for 12 days with serial photography followed by quantification using NIH Image J Plot Profile Plug-In, yielding pixel intensity profiles. Changes in pixel intensity where compared between injected (right quadrant) versus noninjected (left quadrant) by using the following formula:
(Noninjected intensity−Injected intensity)/Noninjected intensity×100%. (Eq. 1)

SMILES | uptake on expression of SLC2A3 [1] | entry into breast cancer cells [2] | local and systemic toxicity [3]
O=S(=O)([O-])c1cc(S(=O)(=O)O)ccc1C1=c2cc3c4c(c2Oc2cc(Br)ccc21)CCC[N+]=4CCC3 [Compound 1, 2-(12-bromo-1,2,3,5,6,7-hexahydrochromeno[2,3-f]pyrido[3,2,1-ij]quinolin-4-ium-9-yl)-5-sulfobenzenesulfonate] | does not induce uptake | readily enters cancer cells | –
COc1cc2c(c(OC)c1OC)-c1ccc(OC)c(=O)cc1C(NS(=O)(=O)c1ccc(-c3c4ccc(N(C)C)cc4[o+]c4cc(N(C)C)ccc34)c(S(=O)(=O)[O-])c1)CC2 (stereo not drawn) [Compound 47, 2-(3,6-bis(dimethylamino)xanthylium-9-yl)-5-(N-(1,2,3,10-tetramethoxy-9-oxo-5,6,7,9-tetrahydrobenzo[a]heptalen-7-yl)sulfamoyl)benzenesulfonate] | – | – | markedly reduced local and systemic toxicity

Source: patent publication US20260272895A1, “METHODS AND KITS FOR DELIVERY OF COMPOUNDS INTO CELLS” (Yale University, priority 2023, published 2026)
